Molecular target: NANOLUC® Luciferase (Oplophorus gracilirostris, UniProt Q9GV45, A31E/A60N/A81I/F95D/I117V/K70R/L54V/L99Q/M102K/N193R/P142E/Q151K/Q38R/Q45L/V71I/Y165I)
Experiment: Luminescence assay with purified NANOLUC luciferase (Example 7)
Assay type: biochemical
Conditions: bioluminescence with NANOLUC luciferase
Protocol: Each compound to be screened was dissolved in DMSO (5 mM) and then further diluted to 100 uM in NANO-GLO® Luciferase Assay Buffer. Each diluted substrate was then combined in equal volumes with purified NANOLUC® Luciferase diluted into CO2 independent media+10% FBS. Initial light output for each substrate was measured in a GLOMAXI-Multi+luminometer three minutes after substrate addition and then at five minute intervals as a means to determine signal half-life.
The synthesized coelenterazine analogues (compounds of formula (I) and (II)) were evaluated for their suitability as luciferase substrates. NANOLUC® luciferase was employed for the screening because it is a small (19 kDa), stable, and particularly bright enzyme.

NANOLUC® Luciferase, sequence (Q9GV45 28-196 with tags or gaps with the stated changes limits assumed): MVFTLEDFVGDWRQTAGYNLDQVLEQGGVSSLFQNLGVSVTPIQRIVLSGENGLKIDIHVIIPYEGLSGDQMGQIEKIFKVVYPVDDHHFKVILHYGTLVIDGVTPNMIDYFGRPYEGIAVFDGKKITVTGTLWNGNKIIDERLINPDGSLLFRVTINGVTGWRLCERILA

Row | Compound | λmax, nm
1 | Nc1ccc(-c2cn3c(=O)c(Cc4ccco4)nc-3c(-c3ccnc(Cl)c3)[nH]2)cc1 | 571 nm
2 | O=c1c(Cc2ccco2)nc2c(-c3ccco3)[nH]c(-c3ccco3)cn1-2 [AS-175, 6,8-di(furan-2-yl)-2-(furan-2-ylmethyl)imidazo[1,2-a]pyrazin-3(7H)-one] | 514 nm
3 | O=c1c(Cc2ccco2)nc2c(-c3cccs3)[nH]c(-c3cccs3)cn1-2 [AS-176, 2-(furan-2-ylmethyl)-6,8-di(thiophen-2-yl)imidazo[1,2-a]pyrazin-3(7H)-one] | 496 nm
4 | Cn1cc(-c2[nH]c(-c3ccn(C)n3)cn3c(=O)c(Cc4ccco4)nc2-3)cn1 [AS-190, 2-(furan-2-ylmethyl)-6-(1-methyl-1H-pyrazol-3-yl)-8-(1-methyl-1H-pyrazol-4-yl)imidazo[1,2-a]pyrazin-3(7H)-one] | 496 nm
5 | O=c1c(Cc2ccco2)nc2c(-c3cccc4ccccc34)[nH]c(-c3ccccc3)cn1-2 [AS-215, 2-(furan-2-ylmethyl)-8-(naphthalen-1-yl)-6-phenylimidazo[1,2-a]pyrazin-3(7H)-one] | 517 nm
6 | CN(C)c1ccc(-c2[nH]c(-c3ccccc3)cn3c(=O)c(Cc4ccco4)nc2-3)cc1 [AS-224, 8-(4-(dimethylamino)phenyl)-2-(furan-2-ylmethyl)-6-phenylimidazo[1,2-a]pyrazin-3(7H)-one] | 502 nm
7 | O=c1c(Cc2ccco2)nc2c(-c3ccsc3)[nH]c(-c3ccccc3)cn1-2 [AS-229, 2-(furan-2-ylmethyl)-6-phenyl-8-(thiophen-3-yl)imidazo[1,2-a]pyrazin-3(7H)-one] | 496 nm
8 | O=c1c(Cc2ccco2)nc2c(-c3cccs3)[nH]c(-c3ccccc3)cn1-2 [AS-236, 2-(furan-2-ylmethyl)-6-phenyl-8-(thiophen-2-yl)imidazo[1,2-a]pyrazin-3(7H)-one] | 514 nm
9 | N#Cc1ccc(-c2[nH]c(-c3ccccc3)cn3c(=O)c(Cc4ccco4)nc2-3)cc1 [AS-237, 4-(2-(furan-2-ylmethyl)-3-oxo-6-phenyl-3,7-dihydroimidazo[1,2-a]pyrazin-8-yl)benzonitrile] | 559 nm
10 | O=c1c(Cc2ccco2)nc2c(C#Cc3ccccc3)[nH]c(-c3ccccc3)cn1-2 [AS-242, 2-(furan-2-ylmethyl)-6-phenyl-8-(phenylethynyl)imidazo[1,2-a]pyrazin-3(7H)-one] | 517 nm
11 | O=c1c(Cc2ccco2)nc2c(-c3ccccc3)[nH]c(-c3ccccc3)c(-c3ccccc3)n1-2 [AS-248, 2-(furan-2-ylmethyl)-5,6,8-triphenylimidazo[1,2-a]pyrazin-3(7H)-one] | 520 nm
12 | O=c1c(Cc2ccco2)nc2c(-c3ccc4scnc4c3)[nH]c(-c3ccccc3)cn1-2 [AS-250, 8-(benzo[d]thiazol-5-yl)-2-(furan-2-ylmethyl)-6-phenylimidazo[1,2-a]pyrazin-3(7H)-one] | 511 nm
13 | Cn1cc(-c2[nH]c(-c3ccccc3)cn3c(=O)c(Cc4ccco4)nc2-3)ccc1=O [AS-256, 2-(furan-2-ylmethyl)-8-(1-methyl-6-oxo-1,6-dihydropyridin-3-yl)-6-phenylimidazo[1,2-a]pyrazin-3(7H)-one] | 496 nm
14 | O=c1c(Cc2ccco2)nc2c(-c3ccc(F)cc3)[nH]c(-c3ccccc3)cn1-2 [AS-269, 8-(4-fluorophenyl)-2-(furan-2-ylmethyl)-6-phenylimidazo[1,2-a]pyrazin-3(7H)-one] | 490 nm
15 | O=c1c(Cc2ccco2)nc2c(-c3cc(F)c(F)c(F)c3)[nH]c(-c3ccccc3)cn1-2 [AS-270, 2-(furan-2-ylmethyl)-6-pheny1-8-(3,4,5-trifluorophenyl)imidazo[1,2-a]pyrazin-3(7H)-one] | 502 nm
16 | O=c1c(Cc2ccco2)nc2c(-c3ccnc(F)c3)[nH]c(-c3ccccc3)cn1-2 [AS-271, 8-(2-fluoropyridin-4-yl)-2-(furan-2-ylmethyl)-6-phenylimidazo[1,2-a]pyrazin-3(7H)-one] | 532 nm
17 | O=c1c(Cc2ccco2)nc2c(-c3cccnc3F)[nH]c(-c3ccccc3)cn1-2 [AS-272, 8-(2-fluoropyridin-3-yl)-2-(furan-2-ylmethyl)-6-phenylimidazo[1,2-a]pyrazin-3(7H)-one] | 508 nm
18 | O=c1c(Cc2ccco2)nc2c(-c3ccc(F)nc3)[nH]c(-c3ccccc3)cn1-2 [AS-273, 8-(6-fluoropyridin-3-yl)-2-(furan-2-ylmethyl)-6-phenylimidazo[1,2-a]pyrazin-3(7H)-one] | 496 nm
19 | N#Cc1cccc(-c2[nH]c(-c3ccccc3)cn3c(=O)c(Cc4ccco4)nc2-3)c1 [AS-274, 3-(2-(furan-2-ylmethyl)-3-oxo-6-phenyl-3,7-dihydroimidazo[1,2-a]pyrazin-8-yl)benzonitrile] | 514 nm
20 | O=c1c(Cc2ccco2)nc2c(-c3ccnc(Cl)c3)[nH]c(-c3ccccc3)cn1-2 [AS-275, 8-(2-chloropyridin-4-yl)-2-(furan-2-ylmethyl)-6-phenylimidazo[1,2-a]pyrazin-3(7H)-one] | 535 nm
21 | O=c1c(Cc2ccco2)nc2c(-c3ccncc3)[nH]c(-c3ccccc3)cn1-2 [AS-276, 2-(furan-2-ylmethyl)-6-phenyl-8-(pyridin-4-yl)imidazo[1,2-a]pyrazin-3(7H)-one] | 523 nm
22 | O=c1c(Cc2ccco2)nc2c(-c3cccnc3)[nH]c(-c3ccccc3)cn1-2 [AS-277, 2-(furan-2-ylmethyl)-6-phenyl-8-(pyridin-3-yl)imidazo[1,2-a]pyrazin-3(7H)-one] | 517 nm
23 | O=c1c(Cc2ccco2)nc2c(-c3cccnc3Cl)[nH]c(-c3ccccc3)cn1-2 [AS-278, 8-(2-chloropyridin-3-yl)-2-(furan-2-ylmethyl)-6-phenylimidazo[1,2-a]pyrazin-3(7H)-one] | 499 nm
24 | O=c1c(Cc2ccco2)nc2c(-c3ccc(Cl)s3)[nH]c(-c3ccccc3)cn1-2 [AS-280, 8-(5-chlorothiophen-2-yl)-2-(furan-2-ylmethyl)-6-phenylimidazo[1,2-a]pyrazin-3(7H)-one] | 523 nm
25 | O=c1c(Cc2ccco2)nc2c(-c3sccc3Cl)[nH]c(-c3ccccc3)cn1-2 [AS-282, 8-(3-chlorothiophen-2-yl)-2-(furan-2-ylmethyl)-6-phenylimidazo[1,2-a]pyrazin-3(7H)-one] | 505 nm
26 | N#Cc1c(-c2ccccc2)[nH]c(-c2ccnc(F)c2)c2nc(Cc3ccco3)c(=O)n1-2 [AS-301, 8-(2-fluoropyridin-4-yl)-2-(furan-2-ylmethyl)-3-oxo-6-phenyl-3,7-dihydroimidazo[1,2-a]pyrazine-5-carbonitrile] | 529 nm
27 | O=c1c(Cc2ccco2)nc2c(-c3ccnc(F)c3)[nH]c(-c3cccs3)cn1-2 [AS-306, 8-(2-fluoropyridin-4-yl)-2-(furan-2-ylmethyl)-6-(thiophen-2-yl)imidazo[1,2-a]pyrazin-3(7H)-one] | 544 nm
28 | Cn1c(C#N)ccc1-c1[nH]c(-c2ccccc2)cn2c(=O)c(Cc3ccco3)nc1-2 [AS-311, 5-(2-(furan-2-ylmethyl)-3-oxo-6-phenyl-3,7-dihydroimidazo[1,2-a]pyrazin-8-yl)-1-methyl-1H-pyrrole-2-carbonitrile] | 505 nm
29 | O=c1c(Cc2ccco2)nc2c(-c3ccnc(Br)c3)[nH]c(-c3ccccc3)cn1-2 [AS-314, 8-(2-bromopyridin-4-yl)-2-(furan-2-ylmethyl)-6-phenylimidazo[1,2-a]pyrazin-3(7H)-one] | 538 nm
